Results: paper PMC6925736, “Development of a HPLC-MS/MS Method to Determine the 13 Elements of Semen Cuscutae and Application to a Pharmacokinetic Study in Rats” (Evidence-based Complementary and Alternative Medicine : eCAM, 2019)

What was measured:
[1] = Stability of analytes in rat plasma QC samples under processing and storage conditions; format: in vitro ADME; settings: n = 6; for Measured concentration, room temperature for 4h / Measured concentration, three freeze-thaw / Measured concentration, −70°C for 21 days: rat plasma; for Measured concentration, autosampler for 12h: treated rat plasma sample
Experimental: The stability of the 13 analytes was evaluated by QC samples in different processing and storage conditions, including short-term stability (putting the analytes in ambient temperature for 4 h and storing analytes in autosampler for 12 h after treatment), long-term stability (storing the analytes at −70°C for 21 days) and subjecting analytes to three freeze-thaw cycles. All stability experiments were tested in six parallels with low, middle, and high concentrations.

[2] = Pharmacokinetic study in rats after oral administration of Semen Cuscutae extract (HPLC-MS/MS of plasma); format: in vivo, Sprague–Dawley rats; settings: oral Semen Cuscutae extract 13 g/kg; for plasma concentration after 15 minutes of intragastric administration: LLOQ 1 ng/mL
Experimental: 20 μL of methanol, 20 μL of IS (liquiritin, 200 ng/mL) and 20 μL of formic acid were added to 100 μL of plasma sample and then vortex-mixed. The mixture was extracted with 800 μL of acetonitrile by vortexing for 3 min. After centrifugation at 14000 rpm for 10 min, the supernatant was transferred to a clean glass tube and dried with nitrogen. The residue was reconstituted in 100 μL of methanol and then centrifuged at 14000 rpm for 10 min. 5 μL of supernatant was injected into the LC–MS/MS system for analysis.
Six Sprague–Dawley rats (SPF, 200 ± 10 g, male) were purchased from HFK Laboratory Animal Technology Co., Ltd. The rats were housed in a standard laboratory condition (12 h dark-light cycle; temperature was 25°C ± 2°C and humidity was kept 50 ± 5%) and fed standard dry pellet diet and water for one week for acclimatization. Before the experiments, the rats were in fasting state for 12 h, with free access to water. The Semen Cuscutae extracts were dissolved in 0.5% carboxymethyl cellulose-sodium, prepared into suspension and gavage to the rats at a dose of 13 g/kg. Approximately 200 μL of rat blood samples was collected from the orbital venous plexus at 0, 0.03, 0.08, 0.17, 0.25, 0.5, 1, 2, 4, 6, 8, 10, 12, 24, 36, and 48 h after oral administration into 1.5 mL heparinized centrifuge tube. After centrifugation at 7000 rpm for 10 min immediately, the supernatant was collected into a new centrifuge tube and stored at −70°C until analysis.
Pharmacokinetic parameters (Cmax, t1/2, Tmax, AUC(0-tn), and AUC(0-∞)) were obtained using the software “Drug and Statistics 3.0” (DAS 3.0) (Medical College of Wannan, China).

[3] = male, Sprague-Dawley, rat, plasma, po, 13 g/kg, n = 6
[4] = male, Sprague-Dawley, rat plasma, n = 6
[5] = rat plasma, n = 6, listed as isoquercitrin

Compound	Measured concentration, room temperature for 4h ([1]; spiked 2 ng/mL)	Measured concentration, three freeze-thaw ([1]; spiked 2 ng/mL)	Measured concentration, −70°C for 21 days ([1]; spiked 2 ng/mL)	Measured concentration, room temperature for 4h ([1]; spiked 25 ng/mL)	Measured concentration, three freeze-thaw ([1]; spiked 25 ng/mL)	Measured concentration, −70°C for 21 days ([1]; spiked 25 ng/mL)	Measured concentration, room temperature for 4h ([1]; spiked 250 ng/mL)	Measured concentration, three freeze-thaw ([1]; spiked 250 ng/mL)	Measured concentration, −70°C for 21 days ([1]; spiked 250 ng/mL)	Measured concentration, autosampler for 12h ([1]; spiked 2 ng/mL)	Measured concentration, autosampler for 12h ([1]; spiked 25 ng/mL)	Measured concentration, autosampler for 12h ([1]; spiked 250 ng/mL)	plasma concentration after 15 minutes of intragastric administration ([2]; rat plasma)	C max ([2]; rat plasma, n = 6)	t 1/2 ([2]; rat plasma, n = 6)	further results
O=c1c(O)c(-c2ccc(O)cc2)oc2cc(O)cc(O)c12 [Kaempferol]	2.2 ± 0.2 ng/mL	2.0 ± 0.2 ng/mL	2.0 ± 0.1 ng/mL	24.8 ± 0.3 ng/mL	26.2 ± 1.6 ng/mL	25.7 ± 0.8 ng/mL	247.5 ± 6.3 ng/mL	252.6 ± 7.5 ng/mL	257.2 ± 6.4 ng/mL	2.1 ± 0.2 ng/mL	25.4 ± 2.5 ng/mL	254.0 ± 4.9 ng/mL	lower than the LLOQ	–	–	–
O=c1cc(-c2ccc(O)c(O)c2)oc2cc(O)cc(O)c12 [Luteolin]	2.2 ± 0.1 ng/mL	2.0 ± 0.1 ng/mL	2.0 ± 0.1 ng/mL	26.5 ± 0.5 ng/mL	26.8 ± 1.6 ng/mL	27.4 ± 0.9 ng/mL	256.7 ± 11.5 ng/mL	261.1 ± 8.2 ng/mL	257.6 ± 5.1 ng/mL	2.1 ± 0.1 ng/mL	25.6 ± 1.0 ng/mL	244.9 ± 6.3 ng/mL	lower than the LLOQ	–	–	–
O=c1c(O)c(-c2ccc(O)c(O)c2)oc2cc(O)cc(O)c12 [Quercetin]	2.2 ± 0.1 ng/mL	2.0 ± 0.1 ng/mL	1.9 ± 0.1 ng/mL	26.2 ± 0.7 ng/mL	27.3 ± 0.6 ng/mL	25.6 ± 0.9 ng/mL	254.9 ± 11.8 ng/mL	253.2 ± 5.0 ng/mL	260.0 ± 6.2 ng/mL	2.3 ± 0.1 ng/mL	26.6 ± 0.7 ng/mL	245.3 ± 11.6 ng/mL	lower than the LLOQ	–	–	–
C[C@@H]1O[C@@H](Oc2c(-c3ccc(O)c(O)c3)oc3cc(O)cc(O)c3c2=O)[C@H](O)[C@H](O)[C@H]1O [Quercitrin]	2.1 ± 0.1 ng/mL	2.3 ± 0.1 ng/mL	2.0 ± 0.1 ng/mL	26.3 ± 0.7 ng/mL	26.9 ± 1.5 ng/mL	26.5 ± 0.5 ng/mL	252.5 ± 9.1 ng/mL	261.4 ± 10.3 ng/mL	247.9 ± 5.3 ng/mL	2.1 ± 0.1 ng/mL	26.4 ± 0.9 ng/mL	253.1 ± 4.7 ng/mL	lower than the LLOQ	–	–	–
C[C@@H]1O[C@@H](OC[C@H]2O[C@@H](Oc3c(-c4ccc(O)c(O)c4)oc4cc(O)cc(O)c4c3=O)[C@H](O)[C@@H](O)[C@@H]2O)[C@H](O)[C@H](O)[C@H]1O [Rutin]	–	–	–	–	–	–	–	–	–	–	–	–	–	higher than that of other components	7.70 ± 0.90 h	Measured concentration, room temperature for 4h ([1]; spiked 4 ng/mL): 3.9 ± 0.2 ng/mL; Measured concentration, three freeze-thaw ([1]; spiked 4 ng/mL): 4.0 ± 0.1 ng/mL; Measured concentration, −70°C for 21 days ([1]; spiked 4 ng/mL): 4.0 ± 0.1 ng/mL; Measured concentration, room temperature for 4h ([1]; spiked 50 ng/mL): 56.3 ± 2.3 ng/mL; Measured concentration, three freeze-thaw ([1]; spiked 50 ng/mL): 57.7 ± 1.0 ng/mL; Measured concentration, −70°C for 21 days ([1]; spiked 50 ng/mL): 52.7 ± 3.9 ng/mL; Measured concentration, room temperature for 4h ([1]; spiked 500 ng/mL): 505.7 ± 13.0 ng/mL; Measured concentration, three freeze-thaw ([1]; spiked 500 ng/mL): 513.1 ± 7.4 ng/mL; Measured concentration, −70°C for 21 days ([1]; spiked 500 ng/mL): 494.4 ± 8.8 ng/mL; Measured concentration, autosampler for 12h ([1]; spiked 4 ng/mL): 4.0 ± 0.2 ng/mL; Measured concentration, autosampler for 12h ([1]; spiked 50 ng/mL): 49.8 ± 2.7 ng/mL; Measured concentration, autosampler for 12h ([1]; spiked 500 ng/mL): 489.3 ± 14.2 ng/mL; Tmax [2, 3]: 10 ± 0.03 h; half-life [2, 3]: > 7.5 h; AUC(0-inf) [2, 4]: 4790 ± 2240 ng·h/mL; Cmax [2, 4]: 158 ± 84.1 ng/mL; AUC ([2]; male, Sprague-Dawley, rat plasma, n = 6, read-out: AUC(0-tn)): 4460 ± 2270 ng·h/mL
Isoquercitrin	1.8 ± 0.2 ng/mL	2.1 ± 0.1 ng/mL	1.9 ± 0.1 ng/mL	22.8 ± 1.4 ng/mL	26.2 ± 1.8 ng/mL	25.9 ± 1.8 ng/mL	247.2 ± 14.7 ng/mL	248.9 ± 5.1 ng/mL	263.6 ± 10.2 ng/mL	1.9 ± 0.1 ng/mL	24.0 ± 0.5 ng/mL	238.3 ± 7.2 ng/mL	–	52.61 ± 7.55 ng/mL	0.49 ± 0.05 h	AUC(0-tn) ([2]; rat plasma, n = 6): 838.79 ± 518.04 ng·h/mL; AUC(0-∞) ([2]; rat plasma, n = 6): 949.49 ± 594.15 ng·h/mL; T max ([2]; rat plasma, n = 6): 0.21 ± 0.07 h; T max [2, 5]: less than 1 h; t 1/2 [2, 5]: less than 1.5 h
